Experiments:
soybean plants = experiment: Spray test for tolerance to SU herbicide; format: in vivo; details: 60 grams active ingredient per hectare
Experimental: Soybean plants, transformed with either pZSL13 or pZSL14, were tested for tolerance to SU herbicide. A spray solution was made containing 60 grams of Thifensulfuron-methyl active ingredient per hectare and 0.25% wt/wt of AL-2999 nonionic surfactant. Thifensulfuron-methyl has the chemical name, methyl 3-[[[[(4-methoxy-6-methyl-1,3,5-triazin-2-yl)amino]carbonyl]amino]sulfonyl]-2-thiophenecarboxylate, and is the active ingredient in the two DuPont sulfonylurea herbicides, HARMONY GT® and PINNACLE®. Either HARMONY GT® or PINNACLE® can be used as the source of this sulfonylurea for the spray test. AL-2999 is a nonionic surfactant, obtainable as ATPLUS UCL 1007® from Uniqema. This mixture was evenly sprayed onto the soybean plants at the 1st or 2nd trifoliate stage of development. After waiting approximately two weeks the results were scored. All wild-type plants (or plants lacking the SAMS:herbicide-resistant ALS transgene) were dead (negative control), all plants from commercially available STS® (Sulfonylurea Tolerant Soybean) seeds were alive (positive control), and plants containing the SAMS:herbicide-resistant ALS transgene from either pZSL13 or pZSL14 also survived. Consequently, either the 1.3-kb (SEQ ID NO:6) or the 2.1-kb (SEQ ID NO:14) fragment from the SAMS gene can drive expression of the mutant ALS gene at levels sufficient to provide tolerance to SU.

SAMS promoter = experiment: Induction of SAMS promoter activity by methionine (GUS activity of SAMS::GUS seedlings); format: in vivo, Arabidopsis
Experimental: (§1) To see if SAMS promoter is regulated by external methionine, the SAMS::GUS transgenic Arabidopsis seeds were germinated in the presence of either H2O, 1× Murashige and Skoog salt (GIBCO BRL), 0.01 mM methionine (Sigma), or 1 mM methionine. Ten days old seedlings from ten independent transgenic lines were analyzed for GUS activity according to the protocol described in Example 5.

Arabidopsis seeds = tested on: Arabidopsis seeds
Experimental: as §1

[1] = tested on: transgenic Arabidopsis plants; experiment: Fluorometric GUS assay of SAMS::GUS transgenic plants; format: in vivo, Arabidopsis thaliana; details: developing seeds of SAMS::GUS Arabidopsis
Experimental: FIG. 5 depicts a fluorometric GUS expression assay of transgenic Arabidopsis plants harboring the SAMS::GUS expression cassette. Triple samples of flowers, leaves, stems, siliques coats, young seeds, medium seeds, old seeds, and dry seeds collected from SAMS::GUS transgenic Arabidopsis plants were assayed for GUS activity. The graph was generated by Microsoft Excel and the standard deviation is indicated by the upper part of each column.
The activity of the soybean SAMS promoter was tested by its ability to express the GUS reporter gene in transgenic Arabidopsis plants carrying the SAMS promoter::GUS::3′ Nos expression casstette. […]
The GUS activities of the transgenic Arabidopsis plants were further analyzed by a fluorometric assay. For fluorescence analysis, plant tissues were ground in microfuge tubes with extraction buffer, 50 mM phosphate buffer, pH 7.0, 10 mM EDTA, 0.1% Triton X-100, 0.1% N-lauroyl sarcosine, and 10 mM β-mercaptoethanol, to homogeneity. The samples were centrifuged at 14,000 rpm for 10 minutes, and aliquots of the supernatant were used to determine protein concentrations by the Bradford method (Bio-Rad, Hercules, Calif.) using 96 well microtiter plates read with a kinetic microplate reader (Molecular Devices, Sunnyvale, Calif.). […] Data were entered into a Microsoft Excel spread sheet and analyzed. […]

## COC(=O)c1sccc1S(=O)(=O)NC(=O)Nc1nc(C)nc(OC)n1 [Thifensulfuron-methyl, methyl 3-[[[[(4-methoxy-6-methyl-1,3,5-triazin-2-yl)amino]carbonyl]amino]sulfonyl]-2-thiophenecarboxylate]
Soybean plants; plants containing SAMS:herbicide-resistant ALS transgene from pZSL13 or pZSL14, approximately two weeks
  Plant survival after spray: survived
Soybean plants; plants from commercially available STS seeds, approximately two weeks
  Plant survival after spray: alive
Soybean plants; wild-type plants (lacking transgene), 0.25% AL-2999, scored after approximately two weeks
  Plant survival after spray: dead

## CSCC[C@H](N)C(=O)O [methionine]
SAMS promoter; 0.01 mM free methionine, ten days old seedlings, ten transgenic lines
  SAMS activity induced (GUS activity) compared to H2O treatment: more than two-fold
SAMS promoter; 1 mM methionine
  Induction effect of SAMS promoter: less than that by 0.01 mM methionine
Arabidopsis seeds; 1 mM methionine
  Toxic effect on seedlings: smaller sizes and shorter roots of the seedlings
Arabidopsis seeds; 10 mM free methionine
  Toxic effect on germination and survival: only a few Arabidopsis seeds were able to germinate and none survived

B1: SAMS promoter: soybean S-adenosyl-L-methionine synthetase promoter fragment, 1314 bp, SEQ ID NO:6 (nucleic acid)
DNA: TCTAGATCAAACTCACATCCAAACATAACATGGATATCTCCTTACCAATCATACTAATTATTTTGGGTTAAATATTAATCATTATTTTTAAGATATTAATTAAGAAATTAAAAGATTTTTTAAAAAAATGTATAAAATTATATTATTCATGATTTTTCATACATTTGATTTTGATAATAAATATATTTTTTTTAATTTCTTAAAAAATGTTGCAAGACACTTATTAGACATAGTCTTGTTCTGTTTACAAAAGCATTCATCATTTAATACATTAAAAAATATTTAATACTAACAGTAGAATCTTCTTGTGAGTGGTGTGGGAGTAGGCAACCTGGCATTGAAACGAGAGAAAGAGAGTCAGAACCAGAAGACAAATAAAAAGTATGCAACAAACAAATCAAAATCAAAGGGCAAAGGCTGGGGTTGGCTCAATTGGTTGCTACATTCAATTTTCAACTCAGTCAACGGTTGAGATTCACTCTGACTTCCCCAATCTAAGCCGCGGATGCAAACGGTTGAATCTAACCCACAATCCAATCTCGTTACTTAGGGGCTTTTCCGTCATTAACTCACCCCTGCCACCCGGTTTCCCTATAAATTGGAACTCAATGCTCCCCTCTAAACTCGTATCGCTTCAGAGTTGAGACCAAGACACACTCGTTCATATATCTCTCTGCTCTTCTCTTCTCTTCTACCTCTCAAGGTACTTTTCTTCTCCCTCTACCAAATCCTAGATTCCGTGGTTCAATTTCGGATCTTGCACTTCTGGTTTGCTTTGCCTTGCTTTTTCCTCAACTGGGTCCATCTAGGATCCATGTGAAACTCTACTCTTTCTTTAATATCTGCGGAATACGCGTTGGACTTTCAGATCTAGTCGAAATCATTTCATAATTGCCTTTCTTTCTTTTAGCTTATGAGAAATAAAATCATTTTTTTTTATTTCAAAATAAACCTTGGGCCTTGTGCTGACTGAGATGGGGTTTGGTGATTACAGAATTTTAGCGAATTTTGTAATTGTACTTGTTTGTCTGTAGTTTTGTTTTGTTTTCTTGTTTCTCATACATTCCTTAGGCTTCAATTTTATTCGAGTATAGGTCACAATAGGAATTCAAACTTTGAGCAGGGGAATTAATCCCTTCCTTCAAATCCAGTTTGTTTGTATATATGTTTAAAAAATGAAACTTTTGCTTTAAATTCTATTATAACTTTTTTTATGGCAAAAATTTTTGCATGTGTCTTTGCTCTCCTGTTGTAAATTTACTGTTTAGGTACTAACTCTAGGCTTGTTGTGCAGTTTTTGAAGTATAACCATGG
modifications: Glycine max
[1]
  GUS specific activities: 5-40 pmole 4-Mu (4-methylumbelliferone) per microgram protein per minute
